Data on 5 compounds can be found in patent US7825129B2, “Thieno[2,3-c] isoquinolines for use as inhibitors of PARP” (priority 2000, dated 2010).

Series [1] has as its target T1, poly(ADP-ribose) polymerase (PARP) (Bos taurus, UniProt P18493).
T1 construct: purified PARP derived from foetal calf thymus; from tissue; host or cells: foetal calf thymus
The series can be described thus: Activity against purified PARP, [3H]NAD incorporation. It is filed as biochemical. Conditions: purified PARP from foetal calf thymus, 37° C., 30 mins; read-out: IC50 of PARP inhibitors tested on enzyme prepared from bovine thymus. As to the method: The activity on PARP was evaluated using purified PARP derived from foetal calf thymus, as per Ito et al. (J. Biol. Chem. […]: 3647, 1979). […] The active fractions were used for the activity tests carried out as per Banasik et al. (J. Biol. Chem. 267: 1569, 1992). […] The reaction was terminated with 10% of trichloroacetic acid and the radioactivity associated with the protein was evaluated in a liquid scintillation spectrometer.

For series [2], the system named is primary neuronal cultures. The series can be described thus: Post-ischaemic neuronal death in primary neuronal cultures exposed to oxygen and glucose deprivation. It counts as cell-based. Conditions: read-out: IC50 for reducing post-ischaemic neuronal death. As to the method:
(§1) 2) The biological activity was evaluated in primary neuronal cultures exposed to oxygen and glucose deprivation (see: Neuropharmacology 38: 1007-[…]) and in vivo in rats with MCA [sic]. The volume of the infarct was measured 72 hrs after the occlusion using a method described previously (Cozzi et al., J. Cerebrali Blood Flow Metabolism 19: 771-777; 1999).

Series [3] has as its system rats with permanent occlusion of the medial cerebral artery. The experiment in a line: MCAO stroke model in rats, infarct volume. It is filed as in vivo, rat. Particulars: 3-10 mg/kg i.p., infarct volume measured 72 hrs after occlusion. As to the method: as §1
In this stroke model, the compound (3-10 mg/kg i.p.) reduced by 40% the volume of necrotic brain induced by the permanent occlusion of the medial cerebral artery.

T1 sequence (P18493 whole entry): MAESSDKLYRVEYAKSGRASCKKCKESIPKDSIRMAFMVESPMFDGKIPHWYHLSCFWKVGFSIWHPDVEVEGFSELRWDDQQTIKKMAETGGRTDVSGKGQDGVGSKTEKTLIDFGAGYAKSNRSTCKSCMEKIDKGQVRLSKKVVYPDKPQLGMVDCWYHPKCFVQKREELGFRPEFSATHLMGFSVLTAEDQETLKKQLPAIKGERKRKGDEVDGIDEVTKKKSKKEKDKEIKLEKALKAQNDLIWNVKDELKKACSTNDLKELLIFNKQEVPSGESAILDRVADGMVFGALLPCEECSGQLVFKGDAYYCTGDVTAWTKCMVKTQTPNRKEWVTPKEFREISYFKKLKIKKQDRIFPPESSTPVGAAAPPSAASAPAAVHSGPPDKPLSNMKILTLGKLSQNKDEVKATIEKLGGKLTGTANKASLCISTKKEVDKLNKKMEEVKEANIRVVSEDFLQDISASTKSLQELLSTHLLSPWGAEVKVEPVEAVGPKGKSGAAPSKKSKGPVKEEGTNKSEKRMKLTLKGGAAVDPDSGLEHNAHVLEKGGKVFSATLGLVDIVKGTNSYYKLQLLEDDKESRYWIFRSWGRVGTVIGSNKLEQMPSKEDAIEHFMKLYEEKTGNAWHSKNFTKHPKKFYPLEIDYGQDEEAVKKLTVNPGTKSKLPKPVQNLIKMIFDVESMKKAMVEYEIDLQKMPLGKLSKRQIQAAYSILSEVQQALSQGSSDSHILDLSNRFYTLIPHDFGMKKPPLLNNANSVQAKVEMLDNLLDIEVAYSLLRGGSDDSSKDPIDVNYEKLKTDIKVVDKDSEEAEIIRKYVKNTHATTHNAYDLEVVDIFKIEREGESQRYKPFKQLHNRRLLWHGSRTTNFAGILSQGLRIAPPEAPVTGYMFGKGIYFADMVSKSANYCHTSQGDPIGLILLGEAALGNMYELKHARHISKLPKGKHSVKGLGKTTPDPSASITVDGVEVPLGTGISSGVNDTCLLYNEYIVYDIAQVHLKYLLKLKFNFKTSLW

By IC50 is commonly meant the concentration that gives 50% inhibition. `NC(=O)c1ccccc1` [Benzamide, reference compound]: the IC50 in series [1] turned out to be 90000 nM. Take `O=c1[nH]c2sccc2c2ccccc12` [Example 1, Thieno[2,3-c]isoquinolin-5(4H)-one]: the IC50 in series [2] was approximately 3000 nM. For the same compound, in series [3], the “reduction of the volume of necrotic brain” value worked out at 40%. As a reminder, the melting point is the temperature of the solid-liquid transition. On to `O=c1[nH]c2sccc2c2c(O)cccc12` [Example 2, 9-Hydroxythieno[2,3-c]isoquinolin-5(4H)-one], for which the melting point fell in the range of 298 to 301 °C. In addition, the IC50 in series [1] came to 100 nM. The matching figures for `COc1cccc2c(=O)[nH]c3sccc3c12` [Example 3, 9-Methoxythieno[2,3-c]isoquinolin-5(4H)-one]: 198 to 200 °C and 300 nM.

`Nc1cccc2c(=O)[nH]c3sccc3c12` [Example 4, 9-Aminothieno[2,3-c]isoquinolin-5(4H)-one]: the melting point was in the range of 297 to 299 °C. In addition, the IC50 in series [1] was determined as 50 nM.
